± gives the expanded uncertainty stated by the source.
Key:
[1] = xn = mol fraction of the nth substance listed; conditions: x2 = 0; for surface tension liquid-gas: Tensiometer with plate; for viscosity / mass density: 101 kPa, Liquid; for viscosity: Capillary tube (Ostwald / Ubbelohde) method; for mass density: Vibrating tube method
[2] = refractive index (Na D-line) (dimensionless); xn = mol fraction of the nth substance listed; conditions: 101 kPa, Liquid, Standard Abbe refractometry, x2 = 0

O [water] + CN1CCNCC1
Conditions	mass density, [1] [kg/m3]	refractive index, [2]	surface tension liquid-gas, [1] [mN/m]	viscosity, [1] [mPa·s]
293.15 K	–	1.333 ± 0.001	72.09 ± 0.12	–
298.15 K	–	1.333 ± 0.001	–	0.894 ± 0.019
303.15 K	–	1.332 ± 0.001	71.27 ± 0.12	0.8 ± 0.017
308.15 K	–	1.331 ± 0.001	70.44 ± 0.12	–
313.15 K	–	1.331 ± 0.001	69.66 ± 0.12	0.656 ± 0.014
318.15 K	–	1.331 ± 0.001	68.83 ± 0.12	–
323.15 K	–	1.329 ± 0.001	67.95 ± 0.12	–
325.15 K	988.03 ± 0.05	–	–	0.55 ± 0.012
328.15 K	–	1.328 ± 0.001	–	–
333.15 K	983.2 ± 0.05	1.327 ± 0.001	66.23 ± 0.12	0.47 ± 0.01
343.15 K	977.78 ± 0.05	–	–	0.409 ± 0.009

— the NIST ThermoML archive (doi:10.1016/j.jct.2011.06.020)
